We go through 36 compounds from patent US8426447B2, “Spiro-tricyclic ring compounds as beta-secretase modulators and methods of use” (Amgen Inc., priority 2008, dated 2013).

Some results are limits rather than exact numbers.

For experiment [1], the target named is T1, BACE1 (Homo sapiens, UniProt P56817). The experiment in a line: In Vitro BACE Cell-based Assay (HEK cell assay): Aβ40 in conditioned medium of cells stably expressing Amyloid Precursor Protein, sandwich ELISA. An outline of the steps: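 Read-out is time-resolved fluorescence of Aβ40 in supernatant, captured by pAb40 and detected with biotinylated 6E10 plus Streptavidin-Europium. Cells stably expressing APP received compounds for 24 h over 10 concentrations starting at 100 μM or 10 μM, final DMSO 0.1%.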
T1 sequence (P56817 46-501, species assumed): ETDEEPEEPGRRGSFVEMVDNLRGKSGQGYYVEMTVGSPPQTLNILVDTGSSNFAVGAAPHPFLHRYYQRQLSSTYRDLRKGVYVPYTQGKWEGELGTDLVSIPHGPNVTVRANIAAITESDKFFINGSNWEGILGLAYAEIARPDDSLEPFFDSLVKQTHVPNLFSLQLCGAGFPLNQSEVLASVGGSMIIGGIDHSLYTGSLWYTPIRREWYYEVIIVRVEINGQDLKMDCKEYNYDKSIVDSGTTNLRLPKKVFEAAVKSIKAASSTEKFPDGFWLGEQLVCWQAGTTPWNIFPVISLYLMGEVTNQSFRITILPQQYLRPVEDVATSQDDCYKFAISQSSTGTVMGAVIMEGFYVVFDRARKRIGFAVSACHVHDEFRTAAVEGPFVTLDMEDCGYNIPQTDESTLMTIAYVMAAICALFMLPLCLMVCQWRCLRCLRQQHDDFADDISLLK

For experiment [2], the target named is T1, BACE1. Put plainly: In Vitro Enzymatic BACE FRET (Fluorescence Resonance Energy Transfer) Assay. The format is biochemical. An outline of the steps: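 Cleavage of a 50 nM internally quenched peptide substrate is followed by fluorescence after a one-hour reaction in acidic acetate buffer, pH 4.2, terminated by Tris.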
[3] abbreviates: Table IV, class symbols, read-out: HEK cell assay.
The mark [4] stands for this setting: Table IV, class symbols, read-out: BACE1 FRET assay.
[5] abbreviates: Table III, IC50's in uM ranges, read-out: HEK cell assay.
[6] abbreviates: Table III, IC50's in uM ranges, read-out: BACE1 FRET assay.
[7] abbreviates: HEK cells, read-out: HEK cell assay.
The mark [8] stands for this setting: Table II, Aβ40, 24 h incubation, read-out: HEK cell assay.
Where [9] appears, read: Table II, read-out: BACE1 FRET assay.

Take `Cc1nc(C)c(-c2ccc3c(c2)[C@@]2(COC(N)=N2)c2cc(OCC(C)(C)C)ccc2O3)s1` [compound 837]: the IC50 at BACE1 [1] (setting [3]) is more than 5 µM; at BACE1 [2] (setting [4]), 0.1 to 1 µM.
As for `NC1=N[C@]2(CO1)c1cc(OCC3CCOCC3)ccc1Oc1ccc(-c3cccnc3)cc12` [compound 933], the IC50 on BACE1 [1] (read-out: HEK cell assay) and at BACE1 [2] (read-out: BACE1 FRET assay) was less than 0.1 µM each time.
Turning to `CN(C)C(=O)c1ccc2c(c1)[C@]1(COC(N)=N1)c1cc(OCC(C)(C)C)ccc1O2` [compound 799], the IC50 on BACE1 [1] (setting [3]) and on BACE1 [2] (setting [4]) was 0.1 to 1 µM throughout.
`NC1=NC2(CO1)c1cnc(Cl)cc1Oc1ccc(-c3cccnc3)cc12` (stereo not drawn) [compound 727]: the IC50 was more than 5 µM on BACE1 [1] (read-out: HEK cell assay) and 1 to 5 µM on BACE1 [2] (read-out: BACE1 FRET assay).
As to `COc1ccc2c(c1)[C@@]1(COC(N)=N1)c1c(ccc(-c3cncnc3)c1F)O2` [compound 899], the IC50 at BACE1 [1] (setting [3]) was 1 to 5 µM; at BACE1 [2] (setting [4]) it was 0.1 to 1 µM.
Regarding `CC1(COc2ccc3c(c2)[C@]2(COC(N)=N2)c2cc(-c4ccccc4F)cnc2O3)COC1` [compound 746], the IC50 on BACE1 [1] (read-out: HEK cell assay) is 0.1 to 1 µM; at BACE1 [2] (read-out: BACE1 FRET assay), less than 0.1 µM.
Turning to `CC(C)(C)CC(=O)c1ccc2c(c1)[C@@]1(COC(N)=N1)c1cc(-c3ccc(F)nc3)ccc1O2` [150b], the IC50 was 0.1 to 1 µM at BACE1 [1] (setting [5]) and less than 0.1 µM on BACE1 [2] (setting [6]).
For `COc1ccc2c(c1)[C@]1(COC(N)=N1)c1cc(OC)cnc1O2` [compound 541], the IC50 on BACE1 [1] (setting [3]) is 1 to 5 µM; on BACE1 [2] (setting [4]) it was more than 5 µM.
The like results for `CC(C)Oc1ccc(-c2cc3c(cn2)Oc2ccc(-c4cccnc4)cc2[C@@]32COC(N)=N2)cc1` [compound 851] were, in that order, 0.1 to 1 µM and less than 0.1 µM.
Consider `NC1=N[C@@]2(CO1)c1cc(-c3cccnc3)ccc1Oc1cnc(N3CCCCC3)cc12` [compound 445], for which the IC50 at BACE1 [1] (setting [7]) and on BACE1 [2] (read-out: BACE1 FRET assay) was less than 0.1 µM in each case.
For the compound `NC1=N[C@@]2(CO1)c1cc(-c3ccccc3F)ccc1Oc1ncc(C3=CCOCC3)cc12` [compound 488], the IC50 on BACE1 [1] (setting [7]) and at BACE1 [2] (read-out: BACE1 FRET assay) was less than 0.1 µM throughout.
Consider `CC1(C)CN(c2cnc3c(c2)[C@]2(COC(N)=N2)c2cc(-c4cc(F)ccc4F)ccc2O3)CCO1` [compound 468], for which the IC50 on BACE1 [1] (setting [7]) and on BACE1 [2] (read-out: BACE1 FRET assay) was less than 0.1 µM in each case.
With `COC1CCN(c2ccc3c(c2)[C@]2(COC(N)=N2)c2cc(-c4cccnc4)ccc2O3)CC1` [compound 464], the IC50 at BACE1 [1] (setting [7]) and at BACE1 [2] (read-out: BACE1 FRET assay) was less than 0.1 µM throughout.
`NC1=N[C@@]2(CO1)c1cc(-c3cncnc3)ccc1Oc1ccc(N3CCOC4(CCCC4)C3)cc12` [compound 462]: the IC50 on BACE1 [1] (setting [7]) is 0.1 to 1 µM; on BACE1 [2] (read-out: BACE1 FRET assay), less than 0.1 µM.
Regarding `NC1=N[C@]2(CO1)c1cc(Br)ccc1Oc1ccc(Oc3ccccn3)cc12` [compound 198, (4S)-2′-bromo-7′-(2-pyridinyloxy)spiro[1,3-oxazole-4,9′-xanthen]-2-amine], the IC50 is 1 to 5 µM on BACE1 [1] (setting [5]) and 0.1 to 1 µM at BACE1 [2] (setting [6]).
On to `NC1=N[C@@]2(CO1)c1ccccc1Oc1ccc(C(=O)N3CCCCC3)cc12` [compound 639], for which the IC50 at BACE1 [1] (setting [3]) and on BACE1 [2] (setting [4]) was more than 5 µM throughout.
In the case of `CC(C)(C)COc1ccc2c(c1)[C@@]1(COC(N)=N1)c1cc(-c3csc(C(F)F)c3)ccc1O2` [compound 783], the IC50 is 1 to 5 µM on BACE1 [1] (read-out: HEK cell assay) and less than 0.1 µM on BACE1 [2] (read-out: BACE1 FRET assay).
The like results for `Cc1cc(-c2ccc3c(c2)[C@]2(COC(N)=N2)c2cc(-c4cccnc4)ccc2O3)on1` [compound 693] were, in that order, less than 0.1 µM and less than 0.1 µM.
The like results for `CC1(C)CC(c2ccc3c(c2)[C@]2(COC(N)=N2)c2cc(-c4cncnc4)ccc2O3)=CCO1` [compound 688] were, in that order, less than 0.1 µM and less than 0.1 µM.
As for `NC1=N[C@@]2(CO1)c1cc(-c3cccnc3F)ccc1Oc1c(F)cc(C3CCOCC3)cc12` [compound 385, (4S)-4′-fluoro-7′-(2-fluoro-3-pyridinyl)-2′-(tetrahydro-2H-pyran-4-yl)spiro[1,3-oxazole-4,9′-xanthen]-2-amine], the IC50 on BACE1 [1] (HEK cell-based assay, Aβ40 in conditioned medium, IC50 class symbols, read-out: HEK cell assay) was less than 0.1 µM; on BACE1 [2] (in vitro BACE FRET enzyme assay, IC50 class symbols, read-out: BACE1 FRET assay), less than 0.1 µM.
On to `NC1=N[C@@]2(CO1)c1cc(-c3cccnc3)ccc1Oc1cnc(N3CCC(=O)CC3)cc12` [compound 442], for which the IC50 on BACE1 [1] (setting [7]) and on BACE1 [2] (read-out: BACE1 FRET assay) was less than 0.1 µM each time.
For the compound `COC(=O)/C=C/c1ccc2c(c1)[C@@]1(COC(N)=N1)c1cc(-c3cncnc3)ccc1O2` [compound 946], the IC50 at BACE1 [1] (read-out: HEK cell assay) and on BACE1 [2] (read-out: BACE1 FRET assay) was 0.1 to 1 µM in each case.
On to `COc1ccc2c(c1)[C@]1(COC(N)=N1)c1cc(-c3cncnc3)cnc1O2` [Example 54, (5R)-7-methoxy-3-(5-pyrimidinyl)spiro[chromeno[2,3-b]pyridine-5,4′-[1,3]oxazol]-2′-amine], for which the IC50 at BACE1 [1] (setting [8]) is more than 5 µM; at BACE1 [2] (setting [9]), 1 to 5 µM.
As for `NC1=N[C@@]2(CO1)c1cc(Br)ccc1Oc1ccc(Cl)nc12` [compound 855], the IC50 at BACE1 [1] (setting [3]) and at BACE1 [2] (setting [4]) was more than 5 µM throughout.
`CC(C)(C)COc1ccc2c(n1)[C@]1(COC(N)=N1)c1cc(Br)ccc1O2` [compound 735]: the IC50 on BACE1 [1] (read-out: HEK cell assay) and at BACE1 [2] (read-out: BACE1 FRET assay) was 1 to 5 µM each time.
Regarding `CC(C)(C)COc1ccc2c(c1)[C@]1(COC(N)=N1)c1cc(-c3cccnc3F)cnc1O2` [compound 871], the figures for the IC50 on BACE1 [1] (setting [3]) and on BACE1 [2] (setting [4]) were 0.1 to 1 µM and less than 0.1 µM, respectively.
As for `NC1=N[C@]2(CO1)c1cc(C3=CCOCC3)ccc1Oc1cnc(Cl)cc12` [compound 499], the values for the IC50 at BACE1 [1] (setting [7]) and at BACE1 [2] (read-out: BACE1 FRET assay) were more than 5 µM and 1 to 5 µM, respectively.
On to `CC(C)(C)COc1ccc2c(c1)[C@@]1(COC(N)=N1)c1cc(-c3cc(Cl)ccc3F)cnc1O2` [Example 90, (5S)-3-(5-chloro-2-fluorophenyl)-7-(2,2-dimethylpropoxy)spiro[chromeno[2,3-b]pyridine-5,4′-[1,3]oxazol]-2′-amine], for which the results for the IC50 at BACE1 [1] (setting [8]) and on BACE1 [2] (setting [9]) were 1 to 5 µM and less than 0.1 µM, respectively.
On to `CCCOc1cc2c(cc1F)Oc1ccc(-c3cncnc3)cc1[C@]21COC(N)=N1` [compound 941], for which the IC50 lay within 1 to 5 µM at BACE1 [1] (read-out: HEK cell assay) and 0.1 to 1 µM at BACE1 [2] (read-out: BACE1 FRET assay).
As for `COc1ccc(-c2ccc3c(c2)[C@]2(COC(N)=N2)c2cc(-c4cncnc4)ccc2O3)cc1OC` [compound 830], the IC50 on BACE1 [1] (setting [3]) was 0.1 to 1 µM; on BACE1 [2] (setting [4]), less than 0.1 µM.
The like results for `CN(C)CCOc1ccc2c(c1)[C@]1(COC(N)=N1)c1cc(-c3cccnc3)ccc1O2` [compound 886] were, in that order, less than 0.1 µM and 0.1 to 1 µM.
For `CC(C)(C)COc1ccc2c(c1)[C@]1(COC(N)=N1)c1cc(-c3cnccc3Cl)ccc1O2` [compound 883] the same measures were 0.1 to 1 µM and less than 0.1 µM.
For `COc1ccc2c(c1)[C@]1(COC(N)=N1)c1cc(NC(=O)c3ccc(Cl)cn3)ccc1O2` [compound 652, N-((4S)-2-amino-7′-methoxyspiro[1,3-oxazole-4,9′-xanthen]-2′-yl)-5-chloro-2-pyridinecarboxamide] the same measures were 0.1 to 1 µM and less than 0.1 µM.
In the case of `CC1(C)CN(c2cc3c(cn2)Oc2ccc(-c4cccnc4F)cc2[C@@]32COC(N)=N2)CCO1` [compound 489], the IC50 on BACE1 [1] (HEK cell assay (uM), HEK cells) was less than 0.1 µM; at BACE1 [2] (BACE1 FRET assay (uM)), less than 0.1 µM.
On to `NC1=N[C@]2(CO1)c1ccccc1Oc1ccc(-c3c(F)ccnc3F)cc12` [compound 599], for which the IC50 lay within 1 to 5 µM at BACE1 [1] (setting [3]) and 0.1 to 1 µM at BACE1 [2] (setting [4]).
The like results for `NC1=N[C@]2(CO1)c1cc(Br)ccc1Oc1c(F)cccc12` [compound 559] were, in that order, more than 5 µM and more than 5 µM.
